Values of other authors in publication PMC7482441 (Pharmacological Research, 2020).

How the values were obtained:
[1] = system: mdx mice; conditions: cited from earlier work
[2] = system: BIO 14.6 hamster; conditions: cited from earlier work

CC(C)c1ccc(C(=O)NC(=N)N)cc1S(C)(=O)=O [Cariporide]
creatine kinase (CK) levels, inflammation, fibrosis and histological skeletal muscle damage [1]: markedly reduced | intracellular Ca2+ levels and Na+ influx [2]: normalised
